Results as given in patent US20240116985A1, “STAPLED PEPTIDES AND METHODS THEREOF” (priority 2020, published 2024).
Converted amounts (≈) assume the structure as drawn. Where two headings read alike, the source gives them in different places.

How the values were obtained:
CHI Log D procedure = type: physicochemical; details: pH 7.4
[1] = system: TCF/LEF luciferase Reporter in DLD1 cells; assay: TCF reporter assay (DLD1 TCF/LEF luciferase reporter, Bright-Glo); type: cell-based
Method in brief: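 Readouts: Bright-Glo luciferase for reporter signal and CellTiter-Glo for cell viability, with absolute IC50 derived. The reporter clone came from lentiviral TCF/LEF-luciferase transduction of DLD1 cells, seeded 5000 cells/well in RPMI with 4% FBS and exposed overnight to serially diluted compounds.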

Axin2 and Myc = assay: Gene expression in cells (FIG. 1); type: cell-based
From the text: FIG. 1. Provided agents can modulate gene expression in cells.

[2] = molecular target: T1, full-length beta-Catenin (Uniprot ID P35222) (Homo sapiens, UniProt P35222); assay: Fluorescence polarization IC50 (beta-catenin / 5FAM-TCF4 10-53 competition); type: binding
T1 construct: 10 nM full-length beta-Catenin (Uniprot ID P35222)
T1 sequence (P35222 1-781): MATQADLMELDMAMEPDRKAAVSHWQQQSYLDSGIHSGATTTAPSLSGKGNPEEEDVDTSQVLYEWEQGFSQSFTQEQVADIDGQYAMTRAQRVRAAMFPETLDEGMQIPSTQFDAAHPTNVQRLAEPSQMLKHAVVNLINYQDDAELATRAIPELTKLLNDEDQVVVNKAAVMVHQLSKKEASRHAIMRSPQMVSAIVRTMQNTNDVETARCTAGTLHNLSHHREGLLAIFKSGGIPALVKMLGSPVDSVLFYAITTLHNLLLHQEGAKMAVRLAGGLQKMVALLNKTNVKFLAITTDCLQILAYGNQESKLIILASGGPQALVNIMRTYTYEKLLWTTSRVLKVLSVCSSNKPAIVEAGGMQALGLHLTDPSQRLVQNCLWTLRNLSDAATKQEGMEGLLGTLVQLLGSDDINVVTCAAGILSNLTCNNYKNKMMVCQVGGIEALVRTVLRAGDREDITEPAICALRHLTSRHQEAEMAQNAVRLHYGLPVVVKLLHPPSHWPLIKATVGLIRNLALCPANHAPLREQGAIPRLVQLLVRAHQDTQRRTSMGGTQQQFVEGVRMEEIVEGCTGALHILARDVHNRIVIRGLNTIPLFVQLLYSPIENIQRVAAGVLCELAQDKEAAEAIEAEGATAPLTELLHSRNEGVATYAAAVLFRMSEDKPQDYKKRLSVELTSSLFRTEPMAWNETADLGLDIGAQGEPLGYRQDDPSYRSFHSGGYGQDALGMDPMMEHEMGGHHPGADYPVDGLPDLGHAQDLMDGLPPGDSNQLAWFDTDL

PLOD2 and LCOR = assay: Expression of beta-catenin-independent genes (FIG. 2); type: cell-based
DLD1 = assay: Reporter assay (e.g., DLD1 reporter assay) (FIG. 3); type: cell-based; details: compared to a control peptide I-796
From the text: FIG. 3. Provided technologies can effectively modulate expression.
Various technologies can be utilized for characterizing and/or assessing provided technologies (e.g., agents (e.g., various peptides), compositions, methods, etc.) in accordance with the present disclosure. As described herein, in some embodiments, a useful technology is or comprises fluorescence polarization. In some embodiments, a useful technology assesses Log P or Log D. In some embodiments, a useful technology is or comprises a CHI Log D assay. In some embodiments, a useful technology assesses solubility. In some embodiments, a useful technology is or comprises NanoBRET. In some embodiments, a useful technology is or comprises a reporter assay (e.g., DLD1 reporter assay). In some embodiments, a useful technology is or comprises alphascreen. Certain useful protocols are described in the Examples. Those skilled in the art appreciate that suitable adjustments may be made to such protocols, e.g., according to specific conditions, agents, purposes, etc.

[3] = molecular target: T2, beta-catenin/TCF4 engagement (Homo sapiens, UniProt P35222); assay: Nano-BRET target engagement assay (B-cat-Halo & TCF4-Luc in HEK293 cells); type: cell-based
T2 construct: expressed in transfected cells; host or cells: HEK293
T2 sequence (P35222 1-781): T1 sequence (P35222 1-781)

Solubility in PBS = type: physicochemical
Method in brief: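 Read-out is the HPLC peak area of the supernatant from ultracentrifuged PBS solution, scaled against a 50 μM peptide DMSO injection; value reported as [(PBS area)/(DMSO area)]*50 uM.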

[4] = Peptide + ST-Protein (SAINT-Protein lipid), read-out: TCF Reporter Assay Abs IC50
[5] = Peptide only, read-out: TCF Reporter Assay Abs IC50
[6] = fluorescence polarization, beta-catenin, read-out: FP EC50
[7] = Peptide + ST-Protein (SAINT-Protein lipid), read-out: Nano-BRET Abs IC50
[8] = Peptide only, read-out: Nano-BRET Abs IC50
[9] = absolute IC50, read-out: NanoBRET Abs IC50

SMILES	CHI Log D (CHI Log D procedure)	IC50 [1, 4] [nM]	IC50 [1, 5] [nM]	expression of various nucleic acids such as Axin2 and Myc (Axin2 and Myc)	IC50 [2, 6] [nM]	IC50 ([2]; read-out: beta-Catenin FP IC50) [nM]	expression of beta-catenin-independent genes including beta-catenin-independent WNT target genes such as PLOD2 and LCOR (PLOD2 and LCOR)	expression in a report assay (DLD1)	IC50 [3, 7] [nM]	IC50 [3, 8] [nM]	IC50 [3, 9] [nM]	IC50 ([3]; read-out: NanoBRET Abs IC50) [nM]	IC50 ([3]; read-out: NanoBRET IC50) [nM]	Solubility (Solubility in PBS) [µM]	IC50 ([1]; read-out: DLD1 4% Abs IC50, DLD1 4%) [nM]
CC(=O)N1CCC[C@]12CC=CCCCC1(CCCC=CCCCOC(=O)N3CC[C@@](C(=O)N[C@@H](Cc4ccccc4Cl)C(=O)N[C@@H](Cc4csc5ccccc45)C(=O)N[C@@H](CCC(N)=O)C(N)=O)(C3)NC(=O)[C@H]([C@@H](C)O)NC(=O)[C@H](Cc3ccccc3)NC(=O)[C@H](C)NC(=O)[C@H](C)NC(=O)[C@H](CN(CC(=O)O)CC(F)(F)F)NC(=O)[C@H](CC(=O)O)NC1=O)NC(=O)[C@H](CC(C)(C)C)NC(=O)[C@H](CC(=O)O)NC2=O (stereo partly drawn) [I-922, Ac-PL3-Asp-Npg-B5-Asp-TfeGA-Ala-Ala-Phe-Thr-PyrS2-2C1F-BztA-Gln-NH2]	2.344	200	5000	can effectively reduce expression	12	12	do not significantly impact expression	can effectively reduce expression	1000	6000	2700	2700	2300	32 (≈ 65.4 µg/mL)	
CC(=O)N1CCC[C@]12CC=CCCCC1(CCCC=CCCCOC(=O)N3CC[C@@](C(=O)N[C@@H](Cc4ccsc4)C(=O)N[C@@H](Cc4csc5ccccc45)C(=O)N[C@@H](CCC(N)=O)C(N)=O)(C3)NC(=O)[C@H](CC(C)C)NC(=O)[C@H](Cc3ccccc3)NC(=O)[C@H](C)NC(=O)[C@H](C)NC(=O)[C@H](CN(CC(=O)O)CC(F)(F)F)NC(=O)[C@H](CC(=O)O)NC1=O)NC(=O)[C@H](CC(C)(C)C)NC(=O)[C@H](CC(=O)O)NC2=O (stereo partly drawn) [I-849, Ac-PL3-Asp-Npg-B5-Asp-TfeGA-Ala-Ala-Phe-Leu-PyrS2-3Thi-BztA-Gln-NH2]	2.393	200	5000	can effectively reduce expression	7	8	do not significantly impact expression	can effectively reduce expression	700	5000	2600	3600	2300		1100
